Reference: patent US12473295B2, “Substituted straight chain spiro derivatives” (Janssen Pharmaceutica NV, priority 2019, dated 2025)
Structures can show the parent of a compound that is named as a salt.

Assays:
[1] = target: menin/MLL (terbium chelate-labeled menin, FITC-MBM1 peptide) (Homo sapiens (Human), UniProt O00255); assay: Menin/MLL homogenous time-resolved fluorescence (HTRF) assay; assay type: binding; conditions: HTRF-30 min incubation IC50, 30 min incubation;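 also: IC50 from percent inhibition of HTRF signal, normalized between wells without competitor and wells with a saturating competitor that displaces FITC-MBM1 from His-tagged menin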
Chain of menin/MLL (terbium chelate-labeled menin, FITC-MBM1 peptide) (O00255 other isoform, or with tags, fused parts or gaps): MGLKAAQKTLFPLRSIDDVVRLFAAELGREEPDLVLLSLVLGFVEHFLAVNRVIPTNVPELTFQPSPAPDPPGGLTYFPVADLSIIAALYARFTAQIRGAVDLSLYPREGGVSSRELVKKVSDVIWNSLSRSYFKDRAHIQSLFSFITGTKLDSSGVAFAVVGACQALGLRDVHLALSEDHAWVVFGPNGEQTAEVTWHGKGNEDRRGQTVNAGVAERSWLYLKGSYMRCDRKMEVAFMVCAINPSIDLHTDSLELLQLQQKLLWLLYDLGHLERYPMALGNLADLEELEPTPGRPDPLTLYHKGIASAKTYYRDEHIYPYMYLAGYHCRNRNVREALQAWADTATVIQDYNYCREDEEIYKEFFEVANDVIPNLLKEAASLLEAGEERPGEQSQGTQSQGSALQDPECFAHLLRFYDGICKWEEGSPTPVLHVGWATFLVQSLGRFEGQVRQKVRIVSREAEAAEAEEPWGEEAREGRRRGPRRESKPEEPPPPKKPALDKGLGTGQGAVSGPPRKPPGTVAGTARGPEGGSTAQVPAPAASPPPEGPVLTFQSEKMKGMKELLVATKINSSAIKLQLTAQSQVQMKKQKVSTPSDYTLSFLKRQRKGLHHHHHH

MOLM14 cells = assay: Proliferation assay (spheroid growth, 8 days), MOLM14; assay type: cell-based, human; conditions: Homo sapiens, MOLM-14, […], MOLM14, 8 days; read-out: spheroid assay_OneTime MOLM14 IC50;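 also: spheroid size read as confluence by live-cell imaging, compounds added at a range of concentrations with 0.3% DMSO, DMSO-treated wells = 0%, highest reference dose = low control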
OCI-AML3 cells = assay: Proliferation assay (spheroid growth, 8 days), OCI-AML3; assay type: cell-based, human; conditions: Homo sapiens, OCI-AML-3, […], OCI-AML3, 8 days
Method in brief: (§1)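 Cells were seeded at 200 (MOLM14, OCI-AML3) or 300 (KO-52) per well in ultra-low attachment round-bottom plates with compounds at several concentrations, 0.3% DMSO, and grown 8 days at 37° C. Spheroid confluence was imaged on day 8; IC50 came from a variable-slope fit normalized to DMSO and high-dose reference compound.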

KO-52 cells = assay: Proliferation assay (spheroid growth, 8 days), KO-52 control cell line; assay type: cell-based, human; conditions: Homo sapiens, […], read-out: spheroid assay_OneTime KO-52 IC50
Method in brief: as §1

MEIS1 mRNA = MEIS1 mRNA expression assay (Quantigene Singleplex) in MOLM14 cells; assay type: cell-based, human; conditions: Homo sapiens, MOLM-14, 48 h, 48 hours incubation;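 also: MEIS1 transcript levels read by probe hybridization and normalized to RPL28 mRNA, with IC50 fitted to fold changes across a rising compound concentration series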

Row | Compound | IC50 [1] | IC50 (MOLM14 cells) | IC50 (OCI-AML3 cells) | IC50 (KO-52 cells) | IC50 (MEIS1 mRNA)
1 | CCN(C(=O)c1cc(F)ccc1Oc1nncnc1N1CCC2(C1)CN([C@H](CCCN(C)CCCC(=O)N(C)C)C(C)C)C2)C(C)C [Compound 152, (R)-2-((5-(2-(6-((4-(dimethylamino)-4-oxobutyl)(methyl)amino)-2-methylhexan-3-yl)-2,6-diazaspiro[3.4]octan-6-yl)-1,2,4-triazin-6-yl)oxy)-N-ethyl-5-fluoro-N-isopropylbenzamide fumarate] | 0.19 nM | 37 nM | 350 nM | > 15000 nM | 87 nM
2 | CCN(C(=O)c1cc(F)ccc1Oc1nncnc1N1CCC2(C1)CN([C@H](CCCN(C)[C@H](C)COC)C(C)C)C2)C(C)C [Compound 154, N-ethyl-5-fluoro-N-isopropyl-2-((5-(2-((R)-6-(((R)-1-methoxypropan-2-yl)(methyl)amino)-2-methylhexan-3-yl)-2,6-diazaspiro[3.4]octan-6-yl)-1,2,4-triazin-6-yl)oxy)benzamide fumarate] | 0.051 nM | 22 nM | 67 nM | > 15000 nM | 27 nM
3 | CCN(C(=O)c1cc(F)ccc1Oc1nncnc1N1CCC2(C1)CN([C@H](CCCN(C)[C@@H](C)COC)C(C)C)C2)C(C)C [Compound 157, N-ethyl-5-fluoro-N-isopropyl-2-((5-(2-((R)-6-((S)-1-methoxypropan-2-yl)(methyl)amino)-2-methylhexan-3-yl)-2,6-diazaspiro[3.4]octan-6-yl)-1,2,4-triazin-6-yl)oxy)benzamide fumarate] | 0.12 nM | 21 nM | 83 nM | 13800 nM | 22 nM
4 | CCN(C(=O)c1cc(F)ccc1Oc1nncnc1N1CCC2(C1)CN([C@H](CCCNC(COC)COC)C(C)C)C2)C(C)C [Compound 159, (R)-2-((5-(2-(6-((1,3-dimethoxypropan-2-yl)amino)-2-methylhexan-3-yl)-2,6-diazaspiro[3.4]octan-6-yl)-1,2,4-triazin-6-yl)oxy)-N-ethyl-5-fluoro-N-isopropylbenzamide fumarate] | 0.1 nM | 10 nM | 12 nM | 6300 nM | ~17 nM
5 | CCN(C(=O)c1cc(F)ccc1Oc1nncnc1N1CCC2(C1)CN([C@H](CCCN[C@H](CO)COC)C(C)C)C2)C(C)C [Compound 162, N-ethyl-5-fluoro-2-((5-(2-((R)-6-(((R)-1-hydroxy-3-methoxypropan-2-yl)amino)-2-methylhexan-3-yl)-2,6-diazaspiro[3.4]octan-6-yl)-1,2,4-triazin-6-yl)oxy)-N-isopropylbenzamide] | 0.096 nM | 13 nM | 26 nM | > 15000 nM | ~19 nM
6 | CCN(C(=O)c1cc(F)ccc1Oc1nncnc1N1CCC2(C1)CN([C@H](CCCN[C@@H](CO)COC)C(C)C)C2)C(C)C [Compound 163, N-ethyl-5-fluoro-2-((5-(2-((R)-6-(((S)-1-hydroxy-3-methoxypropan-2-yl)amino)-2-methylhexan-3-yl)-2,6-diazaspiro[3.4]octan-6-yl)-1,2,4-triazin-6-yl)oxy)-N-isopropylbenzamide] | 0.089 nM | 18 nM | 120 nM | > 15000 nM | 20 nM
7 | CCN(C(=O)c1cc(F)ccc1Oc1nncnc1N1CCC2(C1)CN([C@H](CCCN(C)[C@H](CO)COC)C(C)C)C2)C(C)C [Compound 165, N-ethyl-5-fluoro-2-(5-(2-((R)-6-((R)-1-hydroxy-3-methoxypropan-2-yl)(methyl)amino)-2-methylhexan-3-yl)-2,6-diazaspiro[3.4]octan-6-yl)-1,2,4-triazin-6-yl)oxy)-N-isopropylbenzamide fumarate] | 0.06 nM | 30 nM | 99 nM | > 15000 nM | 23 nM
